According to patent US8466104B2, “Therapeutically active alpha MSH analogues” (AbbVie Inc., priority 2005, dated 2013):
Values joined by “and” are separate entries in the source; they are usually repeats but may differ in a detail not shown here. Equal values may be shown once. “Also recorded” adds a separate entry of the source. Read-outs that look alike come from different tables or passages of the source.

How the values were obtained:
[1] = test system: LPS induced TNF-α in plasma; assay: Inhibition of LPS induced TNFa production in rats in vivo (experimental setup 2); design: species or system rat; conditions: for inhibitory effect on plasma TNF-a compared to native a-MSH / TNF-a concentration in plasma, % of the maximal response (LPS-Vehicle) / dose at which the maximal inhibitory effect on TNF-a is achieved: iv LPS infusion; for TNF-a concentration in plasma, % of the maximal response (LPS-Vehicle): 200 μg/kg body weight iv, 120 minutes after initiation of LPS infusion; for dose at which the maximal inhibitory effect on TNF-a is achieved: doses 50, 200, 1000 μg/kg tested
Protocol: Inhibition of LPS Induced TNFa Production in Rats In Vivo
Experimental animals. Female Wistar rats (220-240 g) are obtained from the Charles River, Sulzfeld, Germany, and housed in a temperature- (22-24° C.) and moisture-controlled (40-70%) room with a 12 h light-dark cycle (light on from 6:00 A.M. to 6:00 P.M.). The rats are maintained on a standard rodent diet with 140 mmol/kg of sodium, 275 mmol/kg potassium and 23% protein (Altromin International, Lage, Germany) and have free access to water.
Animal preparation. […] After instrumentation, the animals are housed individually for 7-10 days until the day of the experiment.
Experimental protocol. Prior to the experiments all rats are adapted to the restraining cage used for the experiments by training them for two periods of two hours each. On the day of the experiment, the animal is transferred to a restraining cage, and an intravenous infusion of vehicle solution containing 150 mM glucose is started. The infusion rate is 0.5 ml/h throughout the experiment. After a short adaptation period, infusion of lipopolysaccharide (LPS) is started. LPS (E coli serotype 0127 B8, L 3129, Sigma, St. Louis, USA) is given at a dose of 4 mg/kg body weight delivered as an i.v. infusion over 1 hour. Arterial blood samples of 0.3 ml are taken 60, 90, and 120 minutes after start of the LPS infusion and replaced immediately with heparinized blood from a normal donor rat.
In addition to LPS infusion all rats are treated with a bolus injection of: • Vehicle (0.5 mL isotonic saline); • a-MSH in one of the following doses: 50 μg/kg bw; 200 μg/kg/bw or 1000 μg/kg bw; • Test compound in one of the following doses: 50 μg/kg bw; 200 μg/kg/bw or 1000 μg/kg bw.
Measurement of TNF-α in plasma: The blood samples are collected in a prechilled test tube with 0.5 mM EDTA, pH 7.4, and 20×10^6 IU/ml aprotinin. After centrifugation at 4° C., plasma samples are transferred to pre-chilled test tubes and stored at −20° C. for later measurements of TNF-α. TNF-α in plasma is determined by an ELISA (Biotrak, Amersham, UK).
Statistical analyses. Results are presented as means±SE. A two-way ANOVA for repeated measures is used to test for differences between groups. In case of P<0.05, the differences between corresponding periods are evaluated by unpaired t-tests with Bonferroni's correction of the level of significance.

[2] = test system: myocardial infarction induced by LAD occlusion in rats; assay: Inhibition of myocardial infarction size induced by 60 minutes occlusion of the left anterior descending coronary artery in rats (experimental setup 5); assay type: in vivo, rat; conditions: for dose at which the maximal inhibitory effect on infarction size is achieved: 200 and 1000 μg/kg tested; for effect on myocardial infarction size (in contrast to / compared to a-MSH) / myocardial infarction size, necrotic area as % of area of risk: 3 hours after LAD-reperfusion
Protocol: Inhibition of Myocardial Infarction Size, Induced by 60 Minutes Occlusion of the Left Anterior Descending Coronary Artery in Rats.
Barrier-bred and specific pathogen-free female Wistar rats (250 g) are obtained from Charles River, Hannover, Germany. The animals are housed in a temperature (22-24° C.) and moisture (40-70%) controlled room with a 12-hour light-dark cycle (light on from 6:00 A.M. to 6:00 P.M.). All animals are given free access to tap water and a pelleted rat diet containing approximately 140 mmol/kg of sodium, 275 mmol/kg potassium and 23% protein (Altromin catalogue no. 1310, Altromin International, Lage, Germany). […] One week later the Rats are anaesthetized in an inhalation chamber with 4% isoflurane in O2. After insertion of an endotracheal tube the animal is artificially ventilated with 1.0% isoflurane in O2 using af Hugo Basile Rodent ventilator. Tidal volume is 8-10 ml/kg b.w. and respiratory rate 75 […], which maintains arterial pH between 7.35 and 7.45. During surgery the animal is placed on a heated table that maintains rectal temperature at 37-38° C. Standard ECG (second lead) is measured using a Hugo Sachs ECG Coupler and collected on line at 4,000 Hz in PowerLab. After parasternal thoracotomy and opening of the pericardium the left anterior descending coronary artery (LAD) is localized visually. An atraumatic 6-0 silk suture with an occluder that allows reopening of the ligature is placed around the LAD between the pulmonary trunk and the lower right end of the left auricle. After 10 minutes the left anterior descending coronary artery (LAD) is occluded. Successful occluding is confirmed by alterations in ECG (ST-segment elevation and increase in R-wave amplitude) and by fall in MAP. Reperfusion is made after 60 minutes by opening the occluder. Control rats are sham-operated.
The rats are subjected to one of the following i.v treatments: • Vehicle: 0.5 ml 150 mM NaCl. • a-MSH: 200 μg or 1000 μg a-melanocyte stimulating hormone/kg b.w. in 0.5 ml 150 mM NaCl.
Test compound 200 μg or 1000 μg test compound/kg b.w. in 0.5 ml 150 mM NaCl.
Treatment is given 5 minutes prior to reperfusion.
The rats are kept anaesthetized after the ischemia/reperfusion and re-occluding of the LAD is performed after three hours reperfusion. During this period ECG and MAP are measured continuously. Then Evans Blue dye (1 ml; 2% w/v) is administered i.v. to determine the size of the ischemic area. The heart is removed and cut into horizontal slices to determine the size of the ischemic area and to separate the ischemic myocardium from the non-ischemic myocardium. The ischemic area is isolated and incubated in a 0.5% triphenyltetrazolium chloride solution for 10 minutes at 37° C. The size of the necrotic tissue is then measured by used of a computerized image program. An additional setup of animals are treated with buprenorphine post-surgical and returned to there cages for measurement of left ventricular end diastolic pressure (LVEDP) two weeks later in order to evaluate the effect of the pharmacological treatment on the development of congestive heart failure. LVEDP is measured using a 2F microtip catheters inserted into the left ventricle via the right carotid artery. Isoflurane concentration is adjusted to stabilize mean arterial pressure (MAP) at 85-90 mmHg.
Data are presented as mean±S.E. Within group comparisons are analysed with Student's paired t test. Between group comparisons are performed by one way analysis of variance followed by Fishers Least Significant Difference test. Differences are considered significant at the 0.05 level.

[3] = 14 days after 60 minutes occlusion of LAD

Substance	reduction of TNF-a accumulation during iv infusion of LPS [1]	inhibitory effect on plasma TNF-a compared to native a-MSH [1]	TNF-a concentration in plasma, % of the maximal response (LPS-Vehicle) [1]	dose at which the maximal inhibitory effect on TNF-a is achieved [1]	reduction in infarction size compared to Vehicle treated rats ([2]; 200 μg/kg body weight)	dose at which the maximal inhibitory effect on infarction size is achieved [2]	effect on myocardial infarction size (in contrast to / compared to a-MSH) [2]	myocardial infarction size, necrotic area as % of area of risk ([2]; 200 μg/kg body weight iv)	effect on LVEDP / post-infarctional congestive heart failure [2, 3]	further results
Ac-Lys-Lys-Lys-Lys-Lys-Lys-Ser-Tyr-Ser-Met-Glu-His-Phe-Arg-Trp-Gly-Lys-Pro-Val-NH2 (Ac-KKKKKKSYSMEHFRWGKPV-NH2) [a-MSH analogue #1]	reduce TNF-a accumulation	markedly more pronounced	9±1%	200 μg/kg body weight	~30%	200 μg/kg body weight	reduces the myocardial infarction size	35.7±5.6 % of area of risk	marked reduction in LVEDP	inhibitory effect on plasma TNF-a compared to native a-MSH ([1]; listed as SEQ ID NO: 1*): higher degree; reduction of TNF-a accumulation during iv infusion of LPS ([1]; listed as SEQ ID NO: 1*): significantly inhibit; reduction in infarction size compared to Vehicle treated rats ([2]; 1000 μg/kg body weight): ~30%; myocardial infarction size, necrotic area as % of area of risk ([2]; 1000 μg/kg body weight iv): 35.0±4.4 % of area of risk; effect on myocardial infarction size (in contrast to / compared to a-MSH) ([2]; listed as SEQ ID NO: 1): reduced the infarction size to a higher degree; left ventricular end diastolic pressure (LVEDP) ([2]; 14 days after 60 minutes occlusion of LAD, 200 μg/kg bw): 10.4±2.9 mmHg
Ser-Tyr-Ser-Met-Glu-His-Phe-Arg-Trp-Gly-Lys-Pro-Val [a-MSH, reference compound]	reduce TNF-a accumulation; also recorded: reduce TNF-α accumulation		17±3% and 17±30%	200 μg/kg body weight						
Ac-Lys-Lys-Lys-Lys-Lys-Lys-Ser-Tyr-Ser-Nle-Glu-His-(D-Phe)-Arg-Trp-Gly-Lys-Pro-Val-NH2 (KKKKKKSYSXEHFRWGKPV; N-acetyl, Nle, D-Phe, C-amide) [a-MSH analogue #2]	reduce TNF-a accumulation	markedly more pronounced	9±1%	200 μg/kg body weight	~27%	200 μg/kg body weight	reduces the myocardial infarction size	37.4±5.1 % of area of risk	marked reduction in LVEDP	inhibitory effect on plasma TNF-a compared to native a-MSH ([1]; listed as SEQ ID NO: 5*): higher degree; reduction of TNF-a accumulation during iv infusion of LPS ([1]; listed as SEQ ID NO: 5*): significantly inhibit; effect on myocardial infarction size (in contrast to / compared to a-MSH) ([2]; listed as SEQ ID NO: 5): reduced the infarction size to a higher degree
Ac-Lys-Lys-Lys-Lys-Lys-Lys-Ser-Tyr-Ser-Nle-Glu-His-D-Nal-Arg-Trp-Gly-Lys-Pro-Val-NH2 (KKKKKKSYSXEHXRWGKPV; not fully specified; N-acetyl, Nle, D-Nal, C-amide) [a-MSH analogue #3]	reduce TNF-a accumulation	markedly more pronounced	11±3%	200 μg/kg body weight	~24%	200 μg/kg body weight	reduces the myocardial infarction size	39.0±3.4 % of area of risk	marked reduction in LVEDP	inhibitory effect on plasma TNF-a compared to native a-MSH ([1]; listed as SEQ ID NO: 9*): higher degree; reduction of TNF-a accumulation during iv infusion of LPS ([1]; listed as SEQ ID NO: 9*): significantly inhibit; effect on myocardial infarction size (in contrast to / compared to a-MSH) ([2]; listed as SEQ ID NO: 9): reduced the infarction size to a higher degree
